Source: PMC4019636, “Rational Design of Berberine-Based FtsZ Inhibitors with Broad-Spectrum Antibacterial Activity” (PLoS ONE, 2014)

Legend:
Type in all cases: cell-based
[1] = tested on: vancomycin-susceptible and vancomycin-resistant E. faecium; assay: Antimicrobial susceptibility assay, summary over E. faecium strains; details: Enterococcus faecium
Description: (§1) The bacterial strains S. aureus ATCC 29213, S. aureus ATCC 29247, S. aureus ATCC BAA-41, E. faecium ATCC 49624, E. faecium ATCC 700221, E. faecalis ATCC 29212, S. epidermidis ATCC 12228, E. coli ATCC 25922, and K. pneumoniae ATCC BAA-1144 used in the antimicrobial susceptibility assays were purchased from American Type Culture Collection (ATCC, USA). B. subtilis strain 168 was already available in our in-house collection. E. coli JM109 WM647 was kindly provided by Dr. W. Margolin (University of Texas-Houston Medical School). FM 4–64 was purchased from Invitrogen (Eugene, Oregon). All other chemicals and reagents were purchased from Sigma-Aldrich. Stock solutions were prepared in DMSO. The final percentage of DMSO in the assays was 1% (v/v) for all experiments.
(§2) Antimicrobial susceptibility tests were conducted in 96-well microplates using the broth microdilution procedure described in the Clinical and Laboratory Standards Institute (CLSI) guidelines. Cation-adjusted Mueller Hinton broth for S. aureus strain ATCC 29213, methicillin-resistant S. aureus strain ATCC BAA-41 and ampicillin-resistant S. aureus strain ATCC 29247, or brain heart infusion broth for antibiotic-susceptible E. faecium strain ATCC 49624 and vancomycin-resistant E. faecium strain ATCC 700221, or Mueller Hinton broth for antibiotic-susceptible strains B. subtilis strain 168, E. faecalis strain ATCC 29212 and E. coli strain ATCC 25922 were used in the assays. After incubation for 18 h at 37°C, the absorbance at 600 nm (A600) was recorded using a microplate reader (Bio-Rad laboratory Ltd., UK) and the percentage of bacterial cell inhibition with respect to vehicles (1% DMSO) was calculated. The MIC was defined as the lowest compound concentration at which the growth of bacteria was inhibited by ≥90%. Three independent assays were performed for each test.

[2] = tested on: antibiotic-susceptible and antibiotic-resistant S. aureus strains; assay: Antimicrobial susceptibility assay, summary over S. aureus strains; details: Staphylococcus aureus
Description: as §1, §2

[3] = tested on: E. faecium ATCC 49624; assay: Antimicrobial susceptibility assay (broth microdilution MIC); details: Enterococcus faecium, ATCC49624; E. faecium ATCC 49624; brain heart infusion broth, 18 h at 37°C; growth inhibited by ≥90%; read-out: MIC
Description: as §1
(§3) Antimicrobial susceptibility tests were conducted in 96-well microplates using the broth microdilution procedure described in the Clinical and Laboratory Standards Institute (CLSI) guidelines. […] After incubation for 18 h at 37°C, the absorbance at 600 nm (A600) was recorded using a microplate reader (Bio-Rad laboratory Ltd., UK) and the percentage of bacterial cell inhibition with respect to vehicles (1% DMSO) was calculated. The MIC was defined as the lowest compound concentration at which the growth of bacteria was inhibited by ≥90%. Three independent assays were performed for each test.

[4] = tested on: E. faecium ATCC 700221; assay: as above; details: Enterococcus faecium, ATCC700221; E. faecium ATCC 700221 (vancomycin-resistant); brain heart infusion broth, 18 h at 37°C; growth inhibited by ≥90%; read-out: MIC
Description: as §1, §3

[5] = tested on: K. pneumoniae ATCC BAA-1144; assay: as above; details: Klebsiella pneumoniae, ATCCBAA1144; K. pneumoniae ATCC BAA-1144 (Gram-negative, expressing AmpC β-lactamase); 18 h at 37°C; growth inhibited by ≥90%; read-out: MIC
Description: as §1, §2

[6] = tested on: E. faecalis ATCC 29212; assay: as above; details: Enterococcus faecalis, ATCC29212; E. faecalis ATCC 29212; Mueller Hinton broth, 18 h at 37°C; growth inhibited by ≥90%; read-out: MIC
Description: as §1, §2

[7] = tested on: S. aureus ATCC 29213; assay: as above; details: Staphylococcus aureus, ATCC29213; S. aureus ATCC 29213; cation-adjusted Mueller Hinton broth, 18 h at 37°C; growth inhibited by ≥90%; read-out: MIC
Description: as §1, §2

[8] = tested on: S. epidermidis ATCC 12228; assay: as above; details: Staphylococcus epidermidis, ATCC12228; S. epidermidis ATCC 12228; 18 h at 37°C; growth inhibited by ≥90%; read-out: MIC
Description: as §1, §2

SMILES | MIC [1] | MIC [2] | MIC [3] | MIC [4] | MIC [5] | MIC [6] | MIC [7] | MIC [8]
COc1ccc2cc3[n+](cc2c1OC)CCc1cc2c(cc1-3)OCO2 [Berberine, Berberine chloride] | > 196 µg/mL | 128 to 196 µg/mL | > 196 µg/mL | > 196 µg/mL | > 500 µg/mL | > 196 µg/mL | 128 µg/mL | 128 µg/mL
COc1ccc2cc3[n+](cc2c1OCCCOc1ccccc1)CCc1cc2c(cc1-3)OCO2 [Compound 1] | 4 to 16 µg/mL | 2 to 8 µg/mL | 8 µg/mL | 8 µg/mL | 128 µg/mL | 16 µg/mL | 4 µg/mL | 4 µg/mL
COc1ccc2cc3[n+](cc2c1OCCCOc1ccc(Cl)cc1)CCc1cc2c(cc1-3)OCO2 [Compound 2] | 4 to 16 µg/mL | 2 to 8 µg/mL | 4 µg/mL | 4 µg/mL | 64 µg/mL | 4 µg/mL | 2 µg/mL | 2 µg/mL
COc1ccc(OCCCOc2c(OC)ccc3cc4[n+](cc23)CCc2cc3c(cc2-4)OCO3)cc1 [Compound 3] | 4 to 16 µg/mL | 2 to 8 µg/mL | 16 µg/mL | 16 µg/mL | 128 µg/mL | 32 µg/mL | 8 µg/mL | 4 µg/mL
COc1ccc2cc3[n+](cc2c1OCCCOc1ccccc1C)CCc1cc2c(cc1-3)OCO2 [Compound 4] | 4 to 16 µg/mL | 2 to 8 µg/mL | 8 µg/mL | 8 µg/mL | 64 µg/mL | 8 µg/mL | 4 µg/mL | 4 µg/mL
COc1ccc2cc3[n+](cc2c1OCCCOc1ccc([N+](=O)[O-])cc1)CCc1cc2c(cc1-3)OCO2 [Compound 5] | 4 to 16 µg/mL | 2 to 8 µg/mL | 8 µg/mL | 8 µg/mL | 64 µg/mL | 8 µg/mL | 2 µg/mL | 2 µg/mL
COc1ccc2cc3[n+](cc2c1OCCCCOc1ccccc1)CCc1cc2c(cc1-3)OCO2 [Compound 6] | 4 to 16 µg/mL | 2 to 8 µg/mL | 8 µg/mL | 8 µg/mL | 128 µg/mL | 16 µg/mL | 4 µg/mL | 4 µg/mL
